Like-named read-outs stand apart in the source and are kept apart here.
Tests used:
human 5-HT1A receptor = molecular target: T1, human 5-HT1A receptor (Homo sapiens, UniProt P08908); assay: 5-HT1A receptor binding ([3H]8-hydroxy-DPAT displacement, CHO-K1 membranes)
T1 construct: expressed in transfected cells; host or cells: CHO-K1
T1 sequence (P08908 1-422): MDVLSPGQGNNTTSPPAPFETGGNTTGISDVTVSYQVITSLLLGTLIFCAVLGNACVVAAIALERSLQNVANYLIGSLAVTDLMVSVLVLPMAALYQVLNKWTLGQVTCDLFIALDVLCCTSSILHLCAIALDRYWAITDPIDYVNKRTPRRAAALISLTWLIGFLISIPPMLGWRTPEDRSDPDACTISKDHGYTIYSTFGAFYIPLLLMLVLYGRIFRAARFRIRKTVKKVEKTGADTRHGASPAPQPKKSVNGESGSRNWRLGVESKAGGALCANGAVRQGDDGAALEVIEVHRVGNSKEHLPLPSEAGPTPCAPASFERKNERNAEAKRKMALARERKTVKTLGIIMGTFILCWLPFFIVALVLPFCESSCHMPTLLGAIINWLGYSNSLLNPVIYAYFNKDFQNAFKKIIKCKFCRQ
Procedure: Because the 5-HT1A receptor is a commonly observed off-site binding site for benzamide N-phenylpiperazine ligands, compounds were simultaneously screened for binding of our compounds at the human 5-HT1A receptor expressed in CHO-K1 cells, using the radioligand [^3H]-8-hydroxy-DPAT (8-OH-DPAT) (Table 2). Based upon the analysis of the displacement assay shown in Table 2, the orthosteric compounds 3c–f appeared to bind with low affinity at human 5-HT1A receptors.
10 μg of membranes from CHO-K1 cells expressing the human 5-HT1A receptor were suspended in 50 mM Tris-HCl, 10 mM MgSO4, 0.5 mM EDTA, and 0.1% (w/v) ascorbic acid, pH 7.4 and test ligands (91 nM for single point radioligand displacement assay and 1 nM to 1 μM for full competition assay) were incubated with 0.25 nM [^3H]8-hydroxy-DPAT (PerkinElmer, Boston, MA, USA) for 60 min at room temperature. The nonspecific binding was determined using 10 μM metergoline (Sigma, St. Louis, MO, USA). After incubation, the bound ligands were filtered using an M-24 Brandel filtration system (Brandel, Gaithersburg, MD, USA), collected on glass fiber papers (Whatman grade 934-AH, GE Healthcare Bio-Sciences, Pittsburgh, PA, USA), and the radioactivity was quantitated using a MicroBeta2 Microplate scintillation counter 2450 (PerkinElmer, Boston, MA, USA).

α2a adrenergic receptor = α2a adrenergic receptor (Homo sapiens, UniProt P08913); assay: PDSP off-target binding; details: read-out: binding affinity α2a (PDSP)
Text: (§1) Further evaluation of the off-target binding of compound 6a was provided by the Psychoactive Drug Screening Program (PDSP) for a range of receptors including serotonin receptor subtypes, α-adrenergic receptor subtypes, β-adrenergic receptor subtypes, histaminergic receptor subtypes, muscarinic receptor subtypes, opioid receptor subtypes and the two sigma receptor subtypes.

D2 dopamine receptor = D2 dopamine receptor (Homo sapiens, UniProt P14416); assay: PDSP off-target binding; details: in words
Text: as §1

D1 dopamine receptor = D1 dopamine receptor (Homo sapiens, UniProt P21728); assay: PDSP off-target binding; details: in words
Text: as §1

α1b adrenergic receptor = α1b adrenergic receptor (Homo sapiens, UniProt P35368); assay: PDSP off-target binding; details: read-out: binding affinity α1b (PDSP)
Text: as §1

α2b adrenergic receptor = α2b adrenergic receptor (Homo sapiens, UniProt P18089); assay: PDSP off-target binding; details: read-out: binding affinity α2b (PDSP)
Text: as §1

[1] = molecular target: norepinephrine transporter (NET) (Homo sapiens, UniProt P23975); assay: PDSP off-target binding; details: read-out: binding affinity NET (PDSP)
Text: as §1

5-HT2B receptor = 5-HT2B receptor (Homo sapiens, UniProt P41595); assay: PDSP off-target binding; details: read-out: binding affinity 5-HT2B (PDSP)
Text: as §1

α2c adrenergic receptor = α2c adrenergic receptor (Homo sapiens, UniProt P18825); assay: PDSP off-target binding; details: read-out: binding affinity α2c (PDSP)
Text: as §1

[2] = molecular target: dopamine transporter (DAT) (Homo sapiens, UniProt Q01959); assay: PDSP off-target binding; details: read-out: binding affinity DAT (PDSP)
Text: as §1

D4 dopamine receptor = D4 dopamine receptor (Homo sapiens, UniProt P21917); assay: PDSP off-target binding; details: read-out: binding affinity D4 (PDSP)
Text: as §1

5-HT7A receptor = 5-HT7A receptor (Homo sapiens, UniProt P34969); assay: PDSP off-target binding; details: read-out: binding affinity 5-HT7A (PDSP)
Text: as §1

D3 dopamine receptor [3] = molecular target: T2, D3 dopamine receptor (Homo sapiens, UniProt P35462); assay: PDSP off-target binding; details: read-out: binding affinity D3 (PDSP)
Text: as §1

α1d adrenergic receptor = α1d adrenergic receptor (Homo sapiens, UniProt P25100); assay: PDSP off-target binding; details: read-out: binding affinity α1d (PDSP)
Text: as §1

sigma-1 receptor = sigma-1 receptor (Homo sapiens, UniProt Q99720); assay: PDSP off-target binding; details: read-out: binding affinity sigma-1 (PDSP)
Text: as §1

[4] = molecular target: serotonin transporter (SERT) (Homo sapiens, UniProt P31645); assay: PDSP off-target binding; details: read-out: binding affinity SERT (PDSP)
Text: as §1

D5 dopamine receptor = D5 dopamine receptor (Homo sapiens, UniProt P21918); assay: PDSP off-target binding; details: in words
Text: as §1

sigma-2 receptor = sigma-2 receptor (Homo sapiens, UniProt Q5BJF2); assay: PDSP off-target binding; details: read-out: binding affinity sigma-2 (PDSP)
Text: as §1

α1a adrenergic receptor = α1a adrenergic receptor (Homo sapiens, UniProt P35348); assay: PDSP off-target binding; details: read-out: binding affinity α1a (PDSP)
Text: as §1

D3 dopamine receptor [5] = molecular target: T2, D3 dopamine receptor
Procedure: Competitive radioligand binding techniques were used to determine the Ki values of ligands at human D2 and D3 dopamine receptors expressed in stably transfected HEK cells (Table 1).
The final radioligand concentration was approximately equal to the Kd value for the binding of the radioligand. […] For each competition curve, triplicates were performed using two concentrations of inhibitor per decade over five orders of magnitude.
The competition curves were modeled for a single binding site using Bs = Bo − ((Bo + L)/(IC50 + L)) where Bs is the amount of ligand bound to receptor and Bo is the amount of ligand bound to receptor in the absence of competitive inhibitor. L is the concentration of the competitive inhibitor. […] The values for Bs and Bo were constrained using experimentally derived values. The IC50 values were converted to equilibrium dissociation constants (Ki) [50, 51]. Mean Ki values ± S.E.M. are reported for at least three independent experiments.

T2 sequence (P35462 whole entry): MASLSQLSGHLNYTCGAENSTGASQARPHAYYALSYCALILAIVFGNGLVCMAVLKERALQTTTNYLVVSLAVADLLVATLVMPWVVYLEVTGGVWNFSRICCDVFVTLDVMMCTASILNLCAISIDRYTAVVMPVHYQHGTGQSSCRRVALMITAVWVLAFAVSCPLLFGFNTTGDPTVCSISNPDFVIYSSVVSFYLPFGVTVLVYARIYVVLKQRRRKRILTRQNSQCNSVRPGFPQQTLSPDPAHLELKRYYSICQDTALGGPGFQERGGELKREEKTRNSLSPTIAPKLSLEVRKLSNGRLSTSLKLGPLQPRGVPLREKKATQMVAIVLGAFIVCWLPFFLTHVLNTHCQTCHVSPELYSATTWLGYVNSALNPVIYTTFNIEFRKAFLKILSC
Sequence of D1 dopamine receptor (P21728 whole entry): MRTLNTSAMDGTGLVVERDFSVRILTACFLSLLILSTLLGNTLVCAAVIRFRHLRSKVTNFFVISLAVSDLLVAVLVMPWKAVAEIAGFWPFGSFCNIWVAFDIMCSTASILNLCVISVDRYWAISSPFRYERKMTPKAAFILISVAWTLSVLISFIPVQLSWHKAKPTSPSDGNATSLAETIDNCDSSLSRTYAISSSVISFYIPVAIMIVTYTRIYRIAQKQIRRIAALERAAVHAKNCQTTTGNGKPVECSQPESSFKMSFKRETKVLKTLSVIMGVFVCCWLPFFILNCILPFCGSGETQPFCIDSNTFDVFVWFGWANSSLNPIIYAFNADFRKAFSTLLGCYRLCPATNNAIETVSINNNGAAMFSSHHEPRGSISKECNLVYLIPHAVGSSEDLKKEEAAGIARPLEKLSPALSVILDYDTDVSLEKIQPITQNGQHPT
Sequence of dopamine transporter (DAT) (Q01959 whole entry, species assumed): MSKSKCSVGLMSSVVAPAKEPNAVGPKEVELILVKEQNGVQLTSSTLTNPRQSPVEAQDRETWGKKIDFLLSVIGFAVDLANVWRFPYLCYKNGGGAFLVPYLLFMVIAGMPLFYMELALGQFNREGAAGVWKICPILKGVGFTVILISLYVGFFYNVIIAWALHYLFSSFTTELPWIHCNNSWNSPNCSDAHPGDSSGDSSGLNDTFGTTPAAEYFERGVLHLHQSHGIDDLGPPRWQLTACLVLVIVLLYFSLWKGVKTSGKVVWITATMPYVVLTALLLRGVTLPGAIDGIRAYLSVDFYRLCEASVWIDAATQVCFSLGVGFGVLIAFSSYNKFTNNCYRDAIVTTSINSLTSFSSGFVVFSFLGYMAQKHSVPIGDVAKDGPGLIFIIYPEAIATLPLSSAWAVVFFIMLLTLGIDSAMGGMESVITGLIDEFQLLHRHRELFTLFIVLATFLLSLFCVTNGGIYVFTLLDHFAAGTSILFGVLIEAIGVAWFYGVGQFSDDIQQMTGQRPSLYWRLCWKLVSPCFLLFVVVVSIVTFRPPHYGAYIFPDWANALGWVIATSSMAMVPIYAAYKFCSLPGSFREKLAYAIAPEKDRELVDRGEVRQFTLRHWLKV
Sequence of sigma-2 receptor (Q5BJF2 whole entry, species assumed): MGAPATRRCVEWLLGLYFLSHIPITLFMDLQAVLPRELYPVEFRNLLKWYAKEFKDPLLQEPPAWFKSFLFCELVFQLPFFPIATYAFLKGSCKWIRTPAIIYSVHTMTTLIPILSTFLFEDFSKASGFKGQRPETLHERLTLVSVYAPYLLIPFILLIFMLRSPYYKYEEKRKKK
Sequence of D2 dopamine receptor (P14416 whole entry): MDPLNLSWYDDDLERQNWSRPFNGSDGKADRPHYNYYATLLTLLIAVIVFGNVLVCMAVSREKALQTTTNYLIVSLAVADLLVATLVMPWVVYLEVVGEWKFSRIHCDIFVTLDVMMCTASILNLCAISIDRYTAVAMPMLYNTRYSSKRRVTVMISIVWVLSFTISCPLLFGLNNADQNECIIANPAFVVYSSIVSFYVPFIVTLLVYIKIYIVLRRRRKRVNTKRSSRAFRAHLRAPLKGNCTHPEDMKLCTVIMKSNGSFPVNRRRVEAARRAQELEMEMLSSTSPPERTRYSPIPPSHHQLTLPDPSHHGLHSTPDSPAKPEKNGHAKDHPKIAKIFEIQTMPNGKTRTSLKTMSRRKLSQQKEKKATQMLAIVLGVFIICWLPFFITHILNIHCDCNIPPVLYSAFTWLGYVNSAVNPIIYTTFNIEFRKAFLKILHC
Sequence of α2a adrenergic receptor (P08913 whole entry): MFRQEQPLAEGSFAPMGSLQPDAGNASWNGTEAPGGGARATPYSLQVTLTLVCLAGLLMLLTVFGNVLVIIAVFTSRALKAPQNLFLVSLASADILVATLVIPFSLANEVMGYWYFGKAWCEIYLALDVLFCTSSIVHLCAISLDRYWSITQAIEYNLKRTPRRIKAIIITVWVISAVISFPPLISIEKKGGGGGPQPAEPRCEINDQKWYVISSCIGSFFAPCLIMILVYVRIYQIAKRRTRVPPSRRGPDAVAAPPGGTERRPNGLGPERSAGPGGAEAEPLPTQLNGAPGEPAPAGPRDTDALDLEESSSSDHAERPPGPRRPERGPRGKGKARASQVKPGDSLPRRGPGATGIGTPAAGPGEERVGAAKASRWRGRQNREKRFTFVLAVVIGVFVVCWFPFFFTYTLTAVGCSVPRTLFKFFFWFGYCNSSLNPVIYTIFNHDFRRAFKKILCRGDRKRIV
Sequence of serotonin transporter (SERT) (P31645 whole entry, species assumed): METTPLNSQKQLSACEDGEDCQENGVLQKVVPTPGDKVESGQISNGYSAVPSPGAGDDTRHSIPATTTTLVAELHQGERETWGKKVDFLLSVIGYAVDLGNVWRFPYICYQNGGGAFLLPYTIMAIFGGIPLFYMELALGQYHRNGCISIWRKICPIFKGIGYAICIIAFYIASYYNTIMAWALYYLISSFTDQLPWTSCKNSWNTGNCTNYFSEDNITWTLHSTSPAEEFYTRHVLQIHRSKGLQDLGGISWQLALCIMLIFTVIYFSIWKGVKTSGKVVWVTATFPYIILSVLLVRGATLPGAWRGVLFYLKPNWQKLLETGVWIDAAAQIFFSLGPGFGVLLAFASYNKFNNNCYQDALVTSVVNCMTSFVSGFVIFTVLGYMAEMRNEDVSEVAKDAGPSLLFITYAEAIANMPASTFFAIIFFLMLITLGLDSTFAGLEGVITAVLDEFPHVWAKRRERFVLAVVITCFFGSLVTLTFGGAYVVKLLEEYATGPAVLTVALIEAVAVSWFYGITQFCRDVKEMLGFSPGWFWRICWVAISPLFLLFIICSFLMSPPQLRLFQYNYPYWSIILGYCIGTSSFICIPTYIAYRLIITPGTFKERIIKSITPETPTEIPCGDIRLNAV
Sequence of 5-HT7A receptor (P34969 1-445 isoform P34969-2): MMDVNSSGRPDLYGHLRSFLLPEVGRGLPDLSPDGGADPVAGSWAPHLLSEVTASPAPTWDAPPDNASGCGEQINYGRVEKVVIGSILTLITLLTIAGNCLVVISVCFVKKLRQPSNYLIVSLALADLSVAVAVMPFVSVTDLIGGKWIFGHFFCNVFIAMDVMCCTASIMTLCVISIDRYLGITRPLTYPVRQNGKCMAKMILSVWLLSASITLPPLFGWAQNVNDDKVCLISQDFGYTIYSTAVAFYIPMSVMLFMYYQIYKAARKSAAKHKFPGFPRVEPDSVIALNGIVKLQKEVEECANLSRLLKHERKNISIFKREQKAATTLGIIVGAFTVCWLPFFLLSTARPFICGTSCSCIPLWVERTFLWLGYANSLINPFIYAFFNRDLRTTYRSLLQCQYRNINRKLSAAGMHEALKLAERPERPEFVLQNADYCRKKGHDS
Sequence of α1d adrenergic receptor (P25100 whole entry): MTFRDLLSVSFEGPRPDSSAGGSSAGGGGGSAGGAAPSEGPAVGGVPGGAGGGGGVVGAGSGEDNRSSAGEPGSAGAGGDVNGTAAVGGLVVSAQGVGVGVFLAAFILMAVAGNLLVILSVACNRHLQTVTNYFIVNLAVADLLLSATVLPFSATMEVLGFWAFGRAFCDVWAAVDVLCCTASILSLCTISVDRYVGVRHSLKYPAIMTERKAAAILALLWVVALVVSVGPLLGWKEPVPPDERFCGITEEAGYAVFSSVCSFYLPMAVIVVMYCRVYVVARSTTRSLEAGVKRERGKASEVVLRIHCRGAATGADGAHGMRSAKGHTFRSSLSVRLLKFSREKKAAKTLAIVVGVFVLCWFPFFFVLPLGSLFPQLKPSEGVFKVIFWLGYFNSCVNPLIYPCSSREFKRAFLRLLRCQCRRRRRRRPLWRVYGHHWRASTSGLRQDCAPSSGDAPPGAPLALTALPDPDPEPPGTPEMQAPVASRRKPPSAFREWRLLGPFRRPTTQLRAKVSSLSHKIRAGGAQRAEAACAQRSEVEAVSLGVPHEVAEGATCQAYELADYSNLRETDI
Sequence of sigma-1 receptor (Q99720 whole entry, species assumed): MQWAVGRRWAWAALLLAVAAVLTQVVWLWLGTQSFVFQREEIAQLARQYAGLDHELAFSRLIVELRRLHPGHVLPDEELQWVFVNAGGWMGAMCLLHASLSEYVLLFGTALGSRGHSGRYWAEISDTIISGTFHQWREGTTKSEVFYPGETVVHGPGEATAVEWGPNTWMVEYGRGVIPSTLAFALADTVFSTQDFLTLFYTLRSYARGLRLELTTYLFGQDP
Sequence of α2c adrenergic receptor (P18825 whole entry): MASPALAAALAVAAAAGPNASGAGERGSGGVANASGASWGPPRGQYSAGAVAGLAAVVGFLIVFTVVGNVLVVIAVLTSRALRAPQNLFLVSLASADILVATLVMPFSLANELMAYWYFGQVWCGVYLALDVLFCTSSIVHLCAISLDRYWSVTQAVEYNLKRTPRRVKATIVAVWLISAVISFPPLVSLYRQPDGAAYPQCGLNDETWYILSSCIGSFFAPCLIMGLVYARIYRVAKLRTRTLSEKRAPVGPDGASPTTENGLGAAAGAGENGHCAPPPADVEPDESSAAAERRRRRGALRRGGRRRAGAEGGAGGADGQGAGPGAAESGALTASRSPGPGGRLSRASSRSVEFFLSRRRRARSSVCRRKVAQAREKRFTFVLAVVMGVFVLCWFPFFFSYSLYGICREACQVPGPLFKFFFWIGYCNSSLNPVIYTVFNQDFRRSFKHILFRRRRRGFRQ

O=C(NCCCCN1CCN(c2ccccc2F)CC1)c1ccc(-c2ccsc2)cc1 [Compound 6a]
5-HT1A affinity lower than D3 affinity (human 5-HT1A receptor; 5-HT1A Ki vs. D3 Ki): approximately 140 fold | Ki (human 5-HT1A receptor; full competition curve, [3H]-8-hydroxy-DPAT, at least three experiments, read-out: Ki at 5-HT1A receptor): 199 nM | 5-HT1A receptor affinity/displacement in words (human 5-HT1A receptor; radioligand displacement assessment at 91 nM): decreased binding affinity | inhibition at 0.091 µM (human 5-HT1A receptor; single point displacement of [3H]-8-hydroxy-DPAT, 91 nM test compound, CHO-K1, ± S.E.M., n ≥ 3): -3.3 ± 15.1% | Ki (α2a adrenergic receptor): 15.2 nM | binding affinity D2 (PDSP) (D2 dopamine receptor): low affinity binding | binding affinity D1 (PDSP) (D1 dopamine receptor): low affinity binding | Ki (α1b adrenergic receptor): > 100 nM | Ki (α2b adrenergic receptor): > 100 nM | Ki [1]: > 650 nM | Ki (5-HT2B receptor): 36.3 nM | Ki (α2c adrenergic receptor): 27.1 nM | Ki [2]: > 190 nM | Ki (D4 dopamine receptor): > 1500 nM | Ki (5-HT7A receptor): 73.6 nM | Ki (D3 dopamine receptor [3]): 0.2 nM | Ki (α1d adrenergic receptor): 16.6 nM | Ki (sigma-1 receptor): > 175 nM | Ki [4]: > 750 nM | binding affinity D5 (PDSP) (D5 dopamine receptor): low affinity binding | Ki (sigma-2 receptor): 33.1 nM | Ki (α1a adrenergic receptor): 9.8 nM | Ki (D3 dopamine receptor [5]): 1.4 ± 0.2 nM | D2:D3 Selectivity (D3 dopamine receptor [5]; ratio of D2 and D3 Ki values (Table 1)): 467

— PMC8198181, “Evaluation of Substituted N-Phenylpiperazine Analogs as D3 vs. D2 Dopamine Receptor Subtype Selective Ligands” (Molecules, 2021)
